The source of these data is PMC3579865, “An Albumin-Derived Peptide Scaffold Capable of Binding and Catalysis” (PLoS ONE, 2013).

Structures are written as SMILES.

The target in this experiment is T1, human serum albumin (HSA) (Homo sapiens, UniProt P02768).
T1 construct: gene ALB; native full-length HSA, essentially fatty acid free; also measured on GST-HSA100 (A194 to E294)
As to the kind of experiment: tryptophan fluorescence quenching titration (Stern-Volmer and Hill analysis). It is filed as binding.

T1 sequence (P02768 25-609): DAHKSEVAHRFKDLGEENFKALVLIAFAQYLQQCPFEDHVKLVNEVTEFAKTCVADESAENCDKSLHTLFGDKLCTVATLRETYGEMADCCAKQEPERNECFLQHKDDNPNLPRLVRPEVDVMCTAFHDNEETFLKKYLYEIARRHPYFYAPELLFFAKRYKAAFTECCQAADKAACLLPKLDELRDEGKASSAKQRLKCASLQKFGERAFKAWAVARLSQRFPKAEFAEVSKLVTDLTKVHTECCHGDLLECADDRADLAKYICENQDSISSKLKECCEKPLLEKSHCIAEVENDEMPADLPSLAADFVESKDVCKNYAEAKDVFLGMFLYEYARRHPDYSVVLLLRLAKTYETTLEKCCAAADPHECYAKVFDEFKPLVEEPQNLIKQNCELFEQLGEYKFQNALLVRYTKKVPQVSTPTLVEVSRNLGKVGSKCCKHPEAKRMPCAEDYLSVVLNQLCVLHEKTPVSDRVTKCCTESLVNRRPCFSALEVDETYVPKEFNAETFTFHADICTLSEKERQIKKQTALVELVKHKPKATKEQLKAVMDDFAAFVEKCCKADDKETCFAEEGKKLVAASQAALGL

Take `O=C1Nc2ccc(Cl)cc2[C@@](C#CC2CC2)(C(F)(F)F)O1` [2a, efavirenz]: the “Efavirenz / HSA” value is given as 1.89±0.04 10^−4 molL^−1.
